In the supplement of paper PMC10627819:
In brackets after ≈: the same amount, converted by molar mass.

How the values were obtained:
B. subtilis 168 [1] = system: B. subtilis 168
S. aureus DSM 20231 [2] = system: S. aureus DSM 20231
S. aureus Newman [3] = system: S. aureus Newman
S. pneumoniae D39V [4] = system: S. pneumoniae D39V
B. subtilis 168 [5] = assay: fitness (endpoint OD595 vs no drug) (fraction); higher = more growth
In short: (§1)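 Fitness was defined as the optical density at the transition into stationary phase relative to the robust mean of no-drug control wells. Values were capped at 1. Cultures were started at OD595 0.01 in 384-well plates (30 µl, or 55 µl for S. pneumoniae) in TSB, LB Lennox or CY at 37 °C. OD595 was recorded every 30 min over 14 h, with the first reading subtracted as background.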

S. aureus DSM 20231 [6] = assay: as above
In short: as §1

S. aureus Newman [7] = assay: as above
In short: as §1

S. pneumoniae D39V [8] = assay: as above
In short: as §1

B. subtilis 168 [9] = assay: Bliss interaction score (quartile over a dose matrix) (fitness difference); higher = more antagonism (negative = synergy)
In short: (§2)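 Quartiles summarise the Bliss score over technical, biological and donor/recipient replicates, where the score is observed minus expected fitness under a product model. Expected fitness uses single-drug values inferred from combination data. Fitness is OD595 at entry into stationary phase over the plate's robust no-drug mean, capped at 1.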

S. aureus DSM 20231 [10] = assay: as above
In short: as §2

S. aureus Newman [11] = assay: as above
In short: as §2

S. pneumoniae D39V [12] = assay: as above
In short: as §2
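Throughout, for Bliss interaction score (quartile over a dose matrix): first quartile when negative (synergy) and third quartile when positive (antagonism).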

CC[C@H](C)[C@H](N)C1=N[C@H](C(=O)N[C@@H](CC(C)C)C(=O)N[C@H](CCC(=O)O)C(=O)N[C@H](C(=O)N[C@H]2CCCCNC(=O)[C@H](CC(N)=O)NC(=O)[C@@H](CC(=O)O)NC(=O)[C@H](Cc3cnc[nH]3)NC(=O)[C@@H](Cc3ccccc3)NC(=O)[C@H]([C@@H](C)CC)NC(=O)[C@@H](CCCN)NC2=O)[C@@H](C)CC)CS1 [Bacitracin]
main component drawn
Settings	MIC [µg/mL]
B. subtilis 168 [1]	300 (≈ 211 µM)
S. aureus DSM 20231 [2]	80 (≈ 56.2 µM)
S. aureus Newman [3]	75 (≈ 52.7 µM)
S. pneumoniae D39V [4]	1.17 (≈ 0.824 µM)

fitness, main component drawn
Settings	18.75 µg/mL	37.5 µg/mL	75 µg/mL	150 µg/mL
B. subtilis 168 [5]	–	0.936	0.912	0.802
S. aureus DSM 20231 [6]	0.628	0.0499	0.0064	–
S. aureus Newman [7]	0.683	0.275	0	–

CC[C@H]1OC(=O)[C@H](C)[C@@H](O[C@H]2C[C@@](C)(OC)[C@@H](O)[C@H](C)O2)[C@H](C)[C@@H](O[C@@H]2O[C@H](C)C[C@H](N(C)C)[C@H]2O)[C@](C)(O)C[C@@H](C)C(=O)[C@H](C)[C@@H](O)[C@]1(C)O [Erythromycin]
Settings	MIC [µg/mL]
S. aureus DSM 20231 [2]	0.5 (≈ 0.681 µM)
S. aureus Newman [3]	0.5 (≈ 0.681 µM)
S. pneumoniae D39V [4]	0.123 (≈ 0.168 µM)

fitness
Settings	0.0312 µg/mL	0.0625 µg/mL	0.125 µg/mL	0.25 µg/mL	0.5 µg/mL
B. subtilis 168 [5]	0.926	0.704	0.0499	0.0212	–
S. aureus Newman [7]	0.964	0.889	0.594	0.111	0.0101

CC(=O)NC[C@H]1CN(c2ccc(N3CCOCC3)c(F)c2)C(=O)O1 [Linezolid]
Settings	MIC [µg/mL]
B. subtilis 168 [1]	0.5 (≈ 1.48 µM)

fitness
Settings	0.125 µg/mL	0.2 µg/mL	0.25 µg/mL	0.4 µg/mL	0.5 µg/mL	0.8 µg/mL
B. subtilis 168 [5]	0.722	–	0.239	–	0.0555	–
S. aureus DSM 20231 [6]	0.923	–	0.648	–	0.16	–
S. pneumoniae D39V [8]	–	0.665	–	0.412	–	0.227

CC(=O)NC[C@H]1CN(c2ccc(N3CCOCC3)c(F)c2)C(=O)O1 [Linezolid] + Cc1onc(-c2ccccc2)c1C(=O)N[C@@H]1C(=O)N2[C@@H]1SC(C)(C)[C@@H]2C(=O)O [Oxacillin]
one replicate
Settings	fitness
B. subtilis 168 [5], first compound 0.0625 µg/mL, partner 0.0078 µg/mL	0.913
B. subtilis 168 [5], first compound 0.0625 µg/mL, partner 0.0155 µg/mL	0.809
B. subtilis 168 [5], first compound 0.0625 µg/mL, partner 0.031 µg/mL	0.81
B. subtilis 168 [5], first compound 0.125 µg/mL, partner 0.0078 µg/mL	0.594
B. subtilis 168 [5], first compound 0.125 µg/mL, partner 0.0155 µg/mL	0.553
B. subtilis 168 [5], first compound 0.125 µg/mL, partner 0.031 µg/mL	0.529
B. subtilis 168 [5], first compound 0.125 µg/mL, partner 0.075 µg/mL	0.611
B. subtilis 168 [5], first compound 0.125 µg/mL, partner 0.15 µg/mL	0.0387
B. subtilis 168 [5], first compound 0.125 µg/mL, partner 0.3 µg/mL	0.0501
B. subtilis 168 [5], first compound 0.25 µg/mL, partner 0.0078 µg/mL	0.0705
B. subtilis 168 [5], first compound 0.25 µg/mL, partner 0.0155 µg/mL	0.0604
B. subtilis 168 [5], first compound 0.25 µg/mL, partner 0.031 µg/mL	0.0611
B. subtilis 168 [5], first compound 0.25 µg/mL, partner 0.075 µg/mL	0.241
B. subtilis 168 [5], first compound 0.25 µg/mL, partner 0.15 µg/mL	0.0531
B. subtilis 168 [5], first compound 0.25 µg/mL, partner 0.3 µg/mL	0.0536
B. subtilis 168 [5], first compound 0.5 µg/mL, partner 0.075 µg/mL	0.0447
B. subtilis 168 [5], first compound 0.5 µg/mL, partner 0.15 µg/mL	0.0563
B. subtilis 168 [5], first compound 0.5 µg/mL, partner 0.3 µg/mL	0.0594
S. aureus DSM 20231 [6], first compound 1 µg/mL, partner 0.0156 µg/mL	0.0486
S. aureus DSM 20231 [6], first compound 1 µg/mL, partner 0.0312 µg/mL	0.0427
S. aureus DSM 20231 [6], first compound 1 µg/mL, partner 0.0625 µg/mL	0.0557

Settings	fitness
B. subtilis 168 [5], first compound 0.125 µg/mL, partner 0.002 µg/mL	0.567
B. subtilis 168 [5], first compound 0.125 µg/mL, partner 0.004 µg/mL	0.513
B. subtilis 168 [5], first compound 0.125 µg/mL, partner 0.008 µg/mL	0.515
B. subtilis 168 [5], first compound 0.25 µg/mL, partner 0.002 µg/mL	0.112
B. subtilis 168 [5], first compound 0.25 µg/mL, partner 0.004 µg/mL	0.108
B. subtilis 168 [5], first compound 0.25 µg/mL, partner 0.008 µg/mL	0.102
B. subtilis 168 [5], first compound 0.5 µg/mL, partner 0.002 µg/mL	0.0413
B. subtilis 168 [5], first compound 0.5 µg/mL, partner 0.004 µg/mL	0.0471
B. subtilis 168 [5], first compound 0.5 µg/mL, partner 0.008 µg/mL	0.0549
S. aureus DSM 20231 [6], first compound 0.125 µg/mL, partner 0.0156 µg/mL	0.791
S. aureus DSM 20231 [6], first compound 0.125 µg/mL, partner 0.0312 µg/mL	0.665
S. aureus DSM 20231 [6], first compound 0.125 µg/mL, partner 0.0625 µg/mL	0.52
S. aureus DSM 20231 [6], first compound 0.25 µg/mL, partner 0.0156 µg/mL	0.52
S. aureus DSM 20231 [6], first compound 0.25 µg/mL, partner 0.0312 µg/mL	0.501
S. aureus DSM 20231 [6], first compound 0.25 µg/mL, partner 0.0625 µg/mL	0.415
S. aureus DSM 20231 [6], first compound 0.5 µg/mL, partner 0.0156 µg/mL	0.21
S. aureus DSM 20231 [6], first compound 0.5 µg/mL, partner 0.0312 µg/mL	0.188
S. aureus DSM 20231 [6], first compound 0.5 µg/mL, partner 0.0625 µg/mL	0.156
S. pneumoniae D39V [8], first compound 0.105 µg/mL, partner 0.01 µg/mL	0.917
S. pneumoniae D39V [8], first compound 0.105 µg/mL, partner 0.02 µg/mL	0.872
S. pneumoniae D39V [8], first compound 0.105 µg/mL, partner 0.04 µg/mL	0.42
S. pneumoniae D39V [8], first compound 0.2 µg/mL, partner 0.01 µg/mL	0.78
S. pneumoniae D39V [8], first compound 0.2 µg/mL, partner 0.02 µg/mL	0.764
S. pneumoniae D39V [8], first compound 0.2 µg/mL, partner 0.04 µg/mL	0.594
S. pneumoniae D39V [8], first compound 0.21 µg/mL, partner 0.01 µg/mL	0.791
S. pneumoniae D39V [8], first compound 0.21 µg/mL, partner 0.02 µg/mL	0.704
S. pneumoniae D39V [8], first compound 0.21 µg/mL, partner 0.04 µg/mL	0.382
S. pneumoniae D39V [8], first compound 0.4 µg/mL, partner 0.01 µg/mL	0.623
S. pneumoniae D39V [8], first compound 0.4 µg/mL, partner 0.02 µg/mL	0.609
S. pneumoniae D39V [8], first compound 0.4 µg/mL, partner 0.04 µg/mL	0.431
S. pneumoniae D39V [8], first compound 0.42 µg/mL, partner 0.01 µg/mL	0.63
S. pneumoniae D39V [8], first compound 0.42 µg/mL, partner 0.02 µg/mL	0.564
S. pneumoniae D39V [8], first compound 0.42 µg/mL, partner 0.04 µg/mL	0.175
S. pneumoniae D39V [8], first compound 0.8 µg/mL, partner 0.04 µg/mL	0.218

Settings	Bliss interaction score
B. subtilis 168 [9]	0.0403
S. aureus DSM 20231 [10]	-0.0365
S. aureus Newman [11]	-0.0461
S. pneumoniae D39V [12]	0.136

CO[C@@]12[C@H](COC(N)=O)C3=C(C(=O)C(C)=C(N)C3=O)N1C[C@@H]1N[C@@H]12 [Mitomycin C]
Settings	MIC [µg/mL]
B. subtilis 168 [1]	0.25 (≈ 0.748 µM)
S. aureus DSM 20231 [2]	0.069 (≈ 0.206 µM)
S. aureus Newman [3]	0.069 (≈ 0.206 µM)
S. pneumoniae D39V [4]	0.062 (≈ 0.185 µM)

Settings	fitness
B. subtilis 168 [5], 0.0312 µg/mL	0.78
B. subtilis 168 [5], 0.0625 µg/mL	0.582
B. subtilis 168 [5], 0.125 µg/mL	0.0244
S. aureus DSM 20231 [6], 0.0156 µg/mL	0.844
S. aureus DSM 20231 [6], 0.0312 µg/mL	0.775
S. aureus DSM 20231 [6], 0.0625 µg/mL	0.59
S. aureus DSM 20231 [6], 0.1562 µg/mL	0.886
S. aureus Newman [7], 0.0156 µg/mL	0.71
S. aureus Newman [7], 0.0312 µg/mL	0.618
S. aureus Newman [7], 0.0625 µg/mL	0.452
S. pneumoniae D39V [8], 0.002 µg/mL	0.823
S. pneumoniae D39V [8], 0.004 µg/mL	0.754
S. pneumoniae D39V [8], 0.008 µg/mL	0.554
